# Activity calls are given as the source filed them. No cut-off for these calls is given here.
# Tests used:
# [1] = Stability of compound in rat plasma assessed as half-life; format: ADME, cell-free
# RKO [2] = assay: Induction of morphological changes in human RKO cells assessed as appearance of condensed morphology incubated for 24 hrs by Giemsa staining based microscopic analysis; format: functional, cell-based; details: dose 10-90 nM
# LoVo [3] = assay: Cell cycle arrest in human LoVo cells assessed as accumulation of cells at S phase cells at 90 nM incubated for 24 hrs by […]PI staining based flow cytometric analysis (reference value: 54.99 %); format: functional
# [4] = Aqueous solubility of compound by HPLC analysis; format: physicochemical
# [5] = Chemical stability of compound in McCoy's 5A cell culture medium containing 1 % DMSO assessed as (S)-3-fluoro-14-(3-fluorophenyl)-10-hydroxy-8,13,13b,14-tetrahydroindolo[2',3':3,4]pyrido[2,1-b]quinazolin-5(7H)-one release by measuring retention time at 100 uM incubated for 24 hrs by HPLC analysis; format: physicochemical
# RKO [6] = assay: Induction of apoptosis in human RKO cells assessed as apoptosis rate at 90 nM incubated for 24 hrs by Annexin V/PI staining based flow cytometric analysis (reference value: 4.87 %); format: functional
# [7] = Toxicity in male BALB/c nude mouse xenografted with human HT-29 cells assessed as tolerance at 40 mg/kg, ip administered once daily for 14 days; format: organism-based; details: in vivo, 336 h, time 14 day
# [8] = molecular target: T1, DNA topoisomerase 1 (Homo sapiens) (UniProt P11387); assay: Inhibition of topoisomerase 1 (unknown origin) mediated DNA relaxation at 100 uM preincubated for 20 mins followed by pBR322 plasmid DNA addition and measured after 15 mins by red nucleic acid gel staining based agarose gel electrophoresis; details: time 35.0 min
# T1 sequence (whole entry): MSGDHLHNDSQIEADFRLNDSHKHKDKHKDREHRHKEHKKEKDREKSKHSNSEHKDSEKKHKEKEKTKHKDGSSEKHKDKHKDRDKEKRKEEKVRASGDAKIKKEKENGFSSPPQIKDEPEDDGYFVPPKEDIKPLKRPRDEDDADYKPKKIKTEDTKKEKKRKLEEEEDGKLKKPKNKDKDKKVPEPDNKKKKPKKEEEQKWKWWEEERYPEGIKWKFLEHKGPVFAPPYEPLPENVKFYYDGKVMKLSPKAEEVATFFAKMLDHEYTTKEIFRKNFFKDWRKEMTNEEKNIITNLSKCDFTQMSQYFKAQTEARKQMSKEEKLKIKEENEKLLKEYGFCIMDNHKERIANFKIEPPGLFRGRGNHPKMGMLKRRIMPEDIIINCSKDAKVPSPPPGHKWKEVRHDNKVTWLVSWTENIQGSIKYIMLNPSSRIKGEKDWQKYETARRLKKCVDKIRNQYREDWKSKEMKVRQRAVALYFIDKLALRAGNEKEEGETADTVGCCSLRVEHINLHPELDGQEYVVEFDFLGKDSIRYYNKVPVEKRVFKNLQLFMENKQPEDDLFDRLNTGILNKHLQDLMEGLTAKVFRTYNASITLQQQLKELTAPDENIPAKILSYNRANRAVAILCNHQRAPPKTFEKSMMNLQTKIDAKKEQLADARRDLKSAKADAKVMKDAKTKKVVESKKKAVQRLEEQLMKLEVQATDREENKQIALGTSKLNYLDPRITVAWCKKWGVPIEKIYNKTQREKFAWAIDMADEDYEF
# Mitochondrial membrane = assay: Induction of mitochondrial membrane potential loss in human RKO cells assessed as TMRE positive cells at 90 nM incubated for 24 hrs by TMRE staining based flow cytometric analysis (reference value: 95.54 %); format: cell membranes
# [9] = Toxicity in male BALB/c nude mouse xenografted with human LoVo cells assessed as tolerance at 40 mg/kg, ip administered once daily for 14 days; format: organism-based; details: in vivo, 336 h, time 14 day
# LoVo [10] = assay: Cell cycle arrest in human LoVo cells assessed as accumulation of cells at G1 phase cells at 30 nM incubated for 24 hrs by […]PI staining based flow cytometric analysis (reference value: 29.69 %); format: functional
# RKO [11] = assay: Cell cycle arrest in human RKO cells assessed as accumulation of cells at G2 phase at 10 nM incubated for 24 hrs by […]PI staining based flow cytometric analysis (reference value: 20.07 %); format: functional
# HGC-27 = assay: Antiproliferative activity against human HGC-27 cells assessed as inhibition of cell growth incubated for 72 hrs by MTT assay; format: functional, cell-based; details: HGC-27, 72 h
# RKO [12] = assay: Cell cycle arrest in human RKO cells assessed as accumulation of cells at G1 phase at 10 nM incubated for 24 hrs by […]PI staining based flow cytometric analysis (reference value: 35.29 %); format: functional
# LoVo [13] = assay: Cell cycle arrest in human LoVo cells assessed as accumulation of cells at G1 phase cells at 90 nM incubated for 24 hrs by […]PI staining based flow cytometric analysis (reference value: 29.69 %); format: functional
# MGC-803 = assay: Antiproliferative activity against human MGC-803 cells assessed as inhibition of cell growth incubated for 72 hrs by MTT assay; format: functional, cell-based; details: MGC-803, 72 h
# [14] = Apparent clearance during terminal phase in male Sprague-Dawley rat at 50 mg/kg, ip measured after 24 hrs by LC-MS/MS analysis; format: ADME, organism-based; details: in vivo, read-out: CLz/F (converted)
# RKO [15] = assay: Antiproliferative activity against human RKO cells assessed as inhibition of cell growth incubated for 72 hrs by MTT assay; format: functional, cell-based
# [16] = Chemical stability of compound in McCoy's 5A cell culture medium containing 1 % DMSO assessed as retention time at 100 uM incubated for 24 hrs by HPLC analysis; format: physicochemical
# [17] = Half-life in male Sprague-Dawley rat at 50 mg/kg, ip measured after 24 hrs by LC-MS/MS analysis; format: ADME, organism-based; details: in vivo
# [18] = Stability of compound at pH 7.4 assessed as residual rate measured after 2 days; format: physicochemical; details: buffer, time 2 day, read-out: Stability
# LoVo [19] = assay: Antiproliferative activity against human LoVo cells assessed as inhibition of cell growth incubated for 72 hrs by MTT assay; format: functional, cell-based
# RKO [20] = assay: Antiproliferative activity against human RKO cells assessed as reduction in cell viability measured after 24 hrs; format: functional, cell-based; details: dose 40-200 nmol/L
# LoVo [21] = assay: Cell cycle arrest in human LoVo cells assessed as accumulation of cells at G2 phase cells at 90 nM incubated for 24 hrs by […]PI staining based flow cytometric analysis (reference value: 14.84 %); format: functional
# [22] = Toxicity in male BALB/c nude mouse xenografted with human LoVo cells assessed as body weight loss at 40 mg/kg, ip administered once daily for 14 days; format: organism-based; details: in vivo, 336 h, time 14 day
# SK-HEP1 = assay: Antiproliferative activity against human SK-HEP1 cells assessed as inhibition of cell growth incubated for 72 hrs by MTT assay; format: functional, cell-based; details: SK-HEP1, 72 h
# RKO [23] = assay: Cell cycle arrest in human RKO cells assessed as accumulation of cells at G2 phase at 30 nM incubated for 24 hrs by […]PI staining based flow cytometric analysis (reference value: 20.07 %); format: functional
# LoVo [24] = assay: Induction of morphological changes in human LoVo cells assessed as appearance of condensed morphology incubated for 24 hrs by Giemsa staining based microscopic analysis; format: functional, cell-based; details: dose 10-90 nM
smiles,measurement,setting,value
CC(C)(C)OC(=O)N[C@@H](CCC(N)=O)C(=O)Oc1ccc2[nH]c3c(c2c1)CCN1C(=O)c2cc(F)ccc2N(c2cccc(F)c2)[C@H]31,half-life,[1],36 min
same,Activity,RKO [2],Dose-dependent-effect
same,Activity,LoVo [3],53.62%
same,solubility,[4],11.4 µg/mL
same,Retention_time,[5],6.24 min
same,Activity,RKO [6],12.25%
same,Activity,[7],Non-toxic
same,inhibition,[8],Active
same,Activity,Mitochondrial membrane,85.1%
same,Activity,[9],Non-toxic
same,Activity,LoVo [10],10.27%
same,Activity,RKO [11],27.14%
same,IC50,HGC-27,110 nM
same,Activity,RKO [12],29.55%
same,Activity,LoVo [13],25.84%
same,IC50,MGC-803,120 nM
same,CL/F,[14],57.2 mL/min/kg
same,IC50,RKO [15],50 nM
same,Retention_time,[16],8.63 min
same,half-life,[17],82.8 min
same,remaining at 48 h,[18],40.2%
same,IC50,LoVo [19],70 nM
same,Activity,RKO [20],Dose-dependent-effect
same,Activity,LoVo [21],19.93%
same,Activity,[22],Non-toxic
same,IC50,SK-HEP1,870 nM
same,Activity,RKO [23],56.8%
same,Activity,LoVo [24],Dose-dependent-effect

# — ChEMBL document CHEMBL6074684, “Structure-activity relationship study of novel evodiamine amino acid conjugates with potent anti-colorectal cancer efficacy” (Eur J Med Chem, 2025)
